# Where a name gives a salt, the structure may show the parent alone.
# Tests used:
# Aminopeptidase N = target: T1, Aminopeptidase N (Sus scrofa, UniProt P15145); assay: Inhibition activity against enzyme in vitro (aminopeptidase N, L-Leu-p-nitroanilide substrate); assay type: biochemical; settings: for IC50: 37° C., 0.5 h, absorbance 405 nm, PBS pH 7.2, read-out: IC50(μM) APN
# T1 construct: purchased Sigma
# T1 sequence (P15145 1-963): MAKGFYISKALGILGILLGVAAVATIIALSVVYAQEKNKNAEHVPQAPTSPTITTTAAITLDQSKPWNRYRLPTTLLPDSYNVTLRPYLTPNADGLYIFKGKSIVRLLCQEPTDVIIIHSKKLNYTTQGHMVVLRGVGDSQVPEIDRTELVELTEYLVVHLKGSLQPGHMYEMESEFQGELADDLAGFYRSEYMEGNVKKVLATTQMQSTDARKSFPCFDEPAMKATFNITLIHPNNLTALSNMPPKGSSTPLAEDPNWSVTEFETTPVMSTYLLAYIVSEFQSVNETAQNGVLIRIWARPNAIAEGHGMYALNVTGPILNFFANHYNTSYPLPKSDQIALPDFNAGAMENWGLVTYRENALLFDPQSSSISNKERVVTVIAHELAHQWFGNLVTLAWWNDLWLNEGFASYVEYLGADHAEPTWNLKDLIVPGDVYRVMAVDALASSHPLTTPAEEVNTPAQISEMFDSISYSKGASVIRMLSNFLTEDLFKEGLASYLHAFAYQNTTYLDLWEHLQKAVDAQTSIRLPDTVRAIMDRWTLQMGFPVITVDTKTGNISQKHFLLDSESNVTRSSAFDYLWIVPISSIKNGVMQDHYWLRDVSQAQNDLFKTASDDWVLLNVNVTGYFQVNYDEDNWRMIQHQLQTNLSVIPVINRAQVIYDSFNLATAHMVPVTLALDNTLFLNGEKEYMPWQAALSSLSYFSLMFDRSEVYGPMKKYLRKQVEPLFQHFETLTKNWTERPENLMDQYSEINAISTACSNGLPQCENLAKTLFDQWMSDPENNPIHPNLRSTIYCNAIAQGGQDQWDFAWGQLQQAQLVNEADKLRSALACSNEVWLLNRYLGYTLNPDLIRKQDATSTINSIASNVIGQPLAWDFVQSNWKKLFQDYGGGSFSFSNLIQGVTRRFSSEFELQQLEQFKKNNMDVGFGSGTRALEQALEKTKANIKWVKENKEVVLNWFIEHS
# Protocol: Aminopeptidase N and L-Leu-p-nitroanilide as substrate were purchased from Sigma cooperation.
# Preparation of Buffer Solution: 12.89 g Na2HPO4.12H2O and 2.18 g NaH2PO4.2H2O were dissolved in a 1000 mL volumetric flask, then the mixture was diluted to 1000 mL with fresh distilled water to obtain 50 mM Phosphate Buffer solution (PBS, pH 7.2), which was kept at room temperature to spare.
# Aminopeptidase N was dissolved in the buffer solution to obtain 0.1 IU/mL solution.
# The substrate was dissolved in DMSO to obtain a […] solution, which was kept in refrigerator to spare.
# The aminopeptidase N solution 10 μL, the substrate solution 5 μL and compound with different concentration 40 μL were added into a 96-well cell plate, and then adjusted to 200 μL with phosphate buffer saline solution (pH 7.2). […] And the substrate solution 5 μL of blank group was adjusted to 200 μL with buffer solution. The mixture was incubated at 37° C. for 0.5 h, and absorbance was then determined at 405 nm wavelength Inhibitory ratio can be calculated as follows: […]
# According to concentration of compound and corresponding inhibitory ratio, the IC50 value was calculated by using a fitting curve of Origin 7.5 software.
# H22 tumor cells = assay: Activities of compounds in H22 tumor cells bearing Kunming mice models (Example 34); settings: intravenous injection, 58.3 mg/kg/d (0.1 mmol/kg/d)
# Protocol: The ascites was extracted from H22 tumour bearing mice with well growth, followed by adding sterile PBS to dilute the ascites to a concentration of 8.5×10^7 cells/mL. 100 uL of the cells solution was suck up by a 1 mL sterile injector to inoculate into right oxter of mice. After 3 days, the mice were weighted and randomized to several groups (almost 8 mice per group, and a bit more in control group). These mice were administrated a predetermined dosage by intravenous or oral gavage with two days off when having administrated for 5 days until two cycles one of which had 7 days. The body weight of mouse was recorded at the beginning and ending of every cycle,
# After being administrated for two cycles, the mice were weighted and recorded, then sacrificed by cervical dislocation to get lung, liver and spleen weighted respectively.
# Overall difference was calculated by the function of one-way analysis of variance (One-Way ANOVA) in Origin 7.5 software; and t-test was used for pair-comparison between drug administrated group and blank group, and the inhibitory ratio of drug in each group was calculated based on the following equation: inhibitory ratio (100%)=(mean tumor weight of control group−mean tumor weight of drug administrated group)/mean tumor weight of control group×100.
# [1] = system: human prostate cancer cell line PC-3; assay: MTT proliferation inhibition, PC-3; assay type: cell-based; settings: 48 h
# Protocol: (§1) Human leukemia cell line K562, clear-cell ovarian carcinoma cell line ES-2, human prostate cancer cell line PC-3, human breast cancer cell line MCF-7, cell line Hela, human liver cancer cell line H7402 and human ovarian cancer cell line 3-AO were transferred into a culture flask and were cultured in a medium at 37° C. in a 5% CO2 and saturation humidity. One bottle of cells in logarithmic growth phase was picked out and was blew and beaten to be uniform with a pipette, then took some cell suspension solution to prepare blood counting plate smear to count cells under inverted microscope, and then adjusted the cell number to be 1×10^5/mL by adding some culture medium. Cells were seeded on a 96-well plate on which also drug tests performed. Blank control group, negative control group, positive control group and drug test group were established on the plate while the surrounding wells of the plate were not used (but filled with sterile PBS), wherein the blank control groups were prepared by addition of culture medium 150 μL per well, the negative control groups were prepared by addition of cell suspension solution 100 μL per well and culture medium 50 μL per well, the positive control groups were prepared by addition of cell suspension solution 100 μL per well and positive control drug solution 50 μL per well, the drug test groups were prepared by addition of cell suspension solution 100 μL per well and test compound solution 50 μL per well, and there were 5 different concentrations of drug in the positive control group and the drug test group respectively: 0.01, 0.1, 1, 10, 100 μmol·L^−1, each concentration was established with 3 parallel wells. After the drug was added, the 96-well plate was incubated for 48 h at 37° C. in a CO2 incubator of 5% CO2 and saturation humidity. Upon completion of the incubation, 20 μL MTT solution (concentration was 5 mg/mL) was added to each well and incubated for an additional 4 h, and after the 96-well plate was centrifuged at 2000 rpm for 30 min, medium of each well was suck out carefully and removed and 100 μL DMSO was added instead, followed by vibrating on a tablet shaker for 15 min to re-dissolve formazan crystals completely. OD value of each well was measured at 570 nm wavelength using an enzyme-linked immunosorbent assay reader to calculate cellular proliferation inhibitory ratio of each drug in different concentrations. And half-inhibitory concentration (IC50) was calculated using statistical software SPSS 16.0, wherein the cellular proliferation inhibitory ratio can be calculated as following equation: […]
# cell line Hela = assay: MTT proliferation inhibition, Hela; assay type: cell-based; settings: 48 h
# Protocol: as §1
# [2] = system: 7 cell lines (ES-2, K562, PC-3, MCF-7, Hela, H7402, 3-AO); assay: MTT proliferation inhibition, all 7 tumor cell lines (summary in words); assay type: cell-based
# Protocol: as §1
# [3] = system: human breast cancer cell line MCF-7; assay: MTT proliferation inhibition, MCF-7; assay type: cell-based
# Protocol: as §1
# [4] = system: clear-cell ovarian carcinoma cell line ES-2; assay: MTT proliferation inhibition, ES-2; assay type: cell-based; settings: 48 h
# Protocol: as §1
# [5] = system: human leukemia cell line K562; assay: MTT proliferation inhibition, K562; assay type: cell-based
# Protocol: as §1
# [6] = system: human liver cancer cell line H7402; assay: MTT proliferation inhibition, H7402; assay type: cell-based
# Protocol: as §1
# [7] = system: human ovarian cancer cell line 3-AO; assay: MTT proliferation inhibition, 3-AO; assay type: cell-based; settings: 48 h
# Protocol: as §1
molecule,measurement,setting,value
"CC(C)C[C@H](NC(=O)[C@@H](O)[C@H](N)Cc1ccccc1)C(=O)N[C@@H](C)C(=O)OCn1cc(F)c(=O)[nH]c1=O.Cl [BC-03, (S)-(5-fluoro-2,4-dioxo-3,4-dihydropyrimidinyl-1(2H))methyl-2-((S)-2-((2S,3R)-3-amino-2-hydroxy-4-phenylbutanamido)-4-methylpentanamido)propanoate hydrochloride]",inhibitory activity against aminopeptidase N compared with positive control ubenimex,Aminopeptidase N,much more potent than the positive control drug ubenimex
same,IC50,Aminopeptidase N,0.36 µM
"CC(C)C[C@H](NC(=O)[C@@H](O)[C@H](N)Cc1ccccc1)C(=O)NCCC(=O)OCn1cc(F)c(=O)[nH]c1=O [BC-04, (5-fluoro-2,4-dioxo-3,4-dihydropyrimidinyl-1(2H))methyl-4-((S)-2-((2S,3R)-3-amino-2-hydroxy-4-phenylbutanamido)-4-methylpentanamido)propanoate hydrochloride]",inhibitory activity against aminopeptidase N compared with positive control ubenimex,Aminopeptidase N,much more potent than the positive control drug ubenimex
same,IC50,Aminopeptidase N,1.3 µM
"CC(C)C[C@H](NC(=O)[C@@H](O)[C@H](N)Cc1ccccc1)C(=O)NCCCC(=O)OCn1cc(F)c(=O)[nH]c1=O [BC-05, (5-fluoro-2,4-dioxo-3,4-dihydropyrimidinyl-1(2H))methyl-6-((S)-2-((2S,3R)-3-amino-2-hydroxy-4-phenylbutanamido)-4-methylpentanamido)butanoate hydrochloride]",inhibitory activity against aminopeptidase N compared with positive control ubenimex,Aminopeptidase N,much more potent than the positive control drug ubenimex
same,IC50,Aminopeptidase N,1.39 µM
"CC(C)C[C@H](NC(=O)[C@@H](O)[C@H](N)Cc1ccccc1)C(=O)NCCCCCC(=O)OCn1cc(F)c(=O)[nH]c1=O [BC-06, hydrochloride]",inhibitory activity against aminopeptidase N compared with positive control ubenimex,Aminopeptidase N,much more potent than the positive control drug ubenimex
same,IC50,Aminopeptidase N,4.66 µM
"CC(C)C[C@H](NC(=O)[C@@H](O)[C@H](N)Cc1ccccc1)C(=O)N1CCC[C@H]1C(=O)OCn1cc(F)c(=O)[nH]c1=O [BC-07, (S)-(5-fluoro-2,4-dioxo-3,4-dihydropyrimidinyl-1(2H))methyl-1-((S)-2-((2S,3R)-3-amino-2-hydroxy-4-phenylbutanamido)-4-methylpentanamido)-2-tetrahydropyrrolidine carboxylate hydrochloride]",inhibitory activity against aminopeptidase N compared with positive control ubenimex,Aminopeptidase N,much more potent than the positive control drug ubenimex
same,IC50,Aminopeptidase N,0.15 µM
same,Number of mice alive,"H22 tumor cells; 8 mice, two cycles",6
same,Tumor growth inhibition (%),H22 tumor cells; after two cycles,43.61%
same,Tumor weight,H22 tumor cells; after two cycles,0.34 ± 0.24 g
same,Body weight(g) Beginning,H22 tumor cells; beginning,32.17 ± 3.86 g
same,Body weight(g) Ending,H22 tumor cells; ending,31.44 ± 5.01 g
"CC(C)C[C@H](NC(=O)[C@@H](O)[C@H](N)Cc1ccccc1)C(=O)ONC(N)=O [Compound 22, (2S,3R)-3-amino-2-hydroxy-N—((S)-4-methylvaleryl)oxy)ureido)-4-phenylbutanamide hydrochloride]",inhibitory activity against aminopeptidase N compared with positive control ubenimex,Aminopeptidase N,comparable activity with ubenimex
same,IC50,Aminopeptidase N,2.92 µM
same,EC50,[1]; Homo sapiens,13.3 µM
same,EC50,cell line Hela; Homo sapiens,5.55 µM
same,anti-proliferation effect against all the tumor cells,[2],obvious anti-proliferation effect
same,proliferation inhibition activity compared with 5-FU,[2],much more potent than 5-FU
same,EC50,"[3]; Homo sapiens, MCF7, 48 h",6.74 µM
same,EC50,[4]; Ovarian carcinoma cell,5.66 µM
same,EC50,"[5]; Homo sapiens, K562, 48 h",6.52 µM
same,EC50,"[6]; Homo sapiens, H7402, 48 h",7.98 µM
same,EC50,[7]; Homo sapiens,9.06 µM
"CC(C)C[C@H](NC(=O)[C@@H](O)[C@H](N)Cc1ccccc1)C(=O)O [ubenimex, Ubenimex, reference compound]",EC50,[1]; Homo sapiens,> 400 µM
same,EC50,cell line Hela; Homo sapiens,79.6 µM
same,EC50,"[3]; Homo sapiens, MCF7, 48 h",32.7 µM
same,EC50,[4]; Ovarian carcinoma cell,> 400 µM
same,EC50,"[5]; Homo sapiens, K562, 48 h",> 400 µM
same,EC50,"[6]; Homo sapiens, H7402, 48 h",189 µM
same,EC50,[7]; Homo sapiens,> 400 µM
"(S)-2-(4-(6-(5-(2-chloro-6-methylphenyl)-2-thiazolylcarbonyl amino)-2-methyl-4-pyrimidinyl)-1-piperazinyl)ethyl-2-((2S,3R)-3-amino-2-hydroxy-4-phenylbutyryl)-4-methylpentanoate hydrochloride [Compound 32]",inhibitory activity against aminopeptidase N compared with positive control ubenimex,Aminopeptidase N,comparable activity with ubenimex
same,IC50,Aminopeptidase N,7.88 µM
same,EC50,[1],14.1 µM
same,EC50,cell line Hela,3.23 µM
same,anti-proliferation effect against all the tumor cells,[2],obvious anti-proliferation effect
same,proliferation inhibition activity compared with 5-FU,[2],much more potent than 5-FU
same,EC50,[3]; 48 h,3.65 µM
same,EC50,[4],6.45 µM
same,EC50,[5]; 48 h,6.33 µM
same,EC50,[6]; 48 h,6.75 µM
same,EC50,[7],4.89 µM
"(S)-2-((2S,4S)-4-((2S,4S,5R,6S)-4-((tert-butoxycarbonyl)amino)-5-hydroxy-6-methyl-2(2H)-tetrahydropyranyloxy))-2,5,12-trihydroxy-7-methoxy-6,11-dioxo-2-(1,2,3,4,6,11-hexahydrotetracenyl)-2-ethoxy-2-((2S,3R)-3-amino-2-hydroxy-4-phenylbutyryl)-4-methylpentanoate hydrochloride [Compound 28]",inhibitory activity against aminopeptidase N compared with positive control ubenimex,Aminopeptidase N,comparable activity with ubenimex
same,IC50,Aminopeptidase N,5.56 µM
same,EC50,[1],7.67 µM
same,EC50,cell line Hela,1.99 µM
same,anti-proliferation effect against all the tumor cells,[2],obvious anti-proliferation effect
same,proliferation inhibition activity compared with 5-FU,[2],much more potent than 5-FU
same,EC50,[3]; 48 h,2.55 µM
same,EC50,[4],3.34 µM
same,EC50,[5]; 48 h,4.35 µM
same,EC50,[6]; 48 h,4.02 µM
same,EC50,[7],3.02 µM
